Data taken from US20150246137A1, “LIPID COATED NANOPARTICLES CONTAINING AGENTS HAVING LOW AQUEOUS AND LIPID SOLUBILITIES AND METHODS THEREOF” (THE UNIVERSITY OF NORTH CAROLINA AT CHAPEL HILL, priority 2012, published 2015).
Entries after “also recorded” stand apart in the source; their conditions may differ.

What was measured:
[1] = tested on: H460 cells; experiment: In vitro cell viability assay (MTT); assay type: cell-based, human; settings: NCI-H460, 36 h
Protocol: In vitro cell viability of IEP nanoparticles was determined by using the 3-[4,5-dimethylthiazol-2-yl]-2,5-diphenyltetrazolium bromide (MTT) assay. H460 cells were seeded at a density of 1×10^4 per well in96-well plates 24 hours prior to treatment. The cells were treated with different concentrations of IEP-PEG, IEP-PEG AA, free Indium chloride, free outer liposome and free etoposide phosphate for 36 h. The concentrations of indium chloride and free liposomes were maintained in equal mounts used for IEP-PEG and IEP-PEG AA. The medium was replaced with fresh medium containing 5% MTT (Biosynth Inc.) solution and incubated at 37° C. for another 4 h. The resulting formazan crystals were solubilized by adding 100 μL DMSO/Methanol (50:50) solution to each well. The absorbance at 570 nm wavelength was measured with a micro plate reader. Cell viability was calculated as the percentage of the absorbance of the treated cells to that of untreated cells.

[2] = tested on: caspase-3/7; experiment: Caspase activation assay; assay type: cell-based, human; settings: NCI H-460 cells, 24 h
Protocol: H460 cells (2×10^5) were treated as mentioned above with all formulations. The cells were lysed with a radio-immunoprecipitation assay (RIPA) buffer that was supplemented with a protease inhibitor cocktail (Promega, Madison, Wis.). The protein lysates were collected by centrifugation at 14,000 rpm for 10 min at 4° C. Protein concentrations were determined using the BCA assay kit (Pierce Biotechnology) following the manufacturer's recommendations. Thirty micrograms protein of each sample was used to detect caspase-3/7 activity of the cell lysates by using an in vitro assay kit according to the manufacturer's instructions (Promega).

[3] = tested on: PARP-1; experiment: Western blot analysis for PARP; assay type: cell-based, human; settings: H460 cells
Protocol: Forty micrograms of protein per lane was resolved by 4%-12% SDS-PAG Electrophoresis (Invitrogen) before being transferred to polyvinylidenedifluoride (PVDF) membranes (Bio-Rad). The membranes were blocked for 1 h with 5% skim milk at room temperature and then incubated with mouse monoclonal poly (ADPribose) polymerase-1 (PARP-1) antibodies (1:500 dilution; Santa Cruz biotechnology, Inc.) and with β-actin antibody (1:4000 dilution; Santa Cruz biotechnology, Inc.) overnight at 4° C. β-actin was probed as the loading control. The membranes were washed 3 times and then incubated with a secondary antibody (1:4000 dilutions; Santa Cruz biotechnology, Inc.) at room temperature for 1 h. Goat anti-mouse secondary antibody is used for PARP and β-actin primary antibody. Finally, the membranes were washed 4 times and developed by an enhanced chemiluminescence system according to the manufacturer's instructions (Thermo scientific).

[4] = tested on: H460 cells; experiment: Cell cycle analysis (flow cytometry); assay type: cell-based, human; settings: H460, 24 h
Protocol: H460 cells (2×10^5) were seeded in 6-well plates 24 h prior to the treatment. The formulations, IEP-PEG, IEP-PEG AA, InCl3, free liposome and free drug were added and incubated for 24 h at 37° C., humidified CO2 incubator. The cells were trypsinized and washed with PBS followed by fixation in pre-cooled 70% ethanol at −20° C. for at least 1 h. Fixed cells were washed with PBS staining buffer (BD Pharmingen, San Diego, Calif.) and incubated with RNAase (final concentration […]) at 37° C. for 30 min, followed by incubation with […] propidium iodide (PI) at room temperature for 30 min. Finally, cells were washed and suspended in PBS, and analyzed with a FACS Canto flow cytometer (BD Biosciences) to measure the PI intensity, which correlates with the DNA content in the cell cycle. A total of 20,000 events are acquired for each sample and data were analyzed with FACS Diva software (BD Biosciences).

[5] = tested on: H460 subcutaneous xenograft; experiment: Tumor growth inhibition study, H460 xenograft; assay type: in vivo, mice; settings: IV every other day, EP 5 mg/kg
Protocol: A tumor growth inhibition study was completed on H460 subcutaneous xenograft mouse models. Mice were inoculated with 5×10^6 […] by subcutaneous injection. Treatment was started when the tumor volumes reached about 100-150mm^3. The mice were randomly assigned into treatment groups (n=5), and intravenously injected different formulations, including […] and free EP. Four injections were performed every other day for a total of 4 injections at an EP dose of 5 mg/kg. Tumor sizes were measured every other day with calipers across their two perpendicular diameters, and the tumor volume was calculated using the following formula: […] Body weight of each mouse is recorded every other day. Humane sacrifice of mice was performed when tumors reached 20 mm in one dimension.

[6] = tested on: H460 tumor; experiment: TUNEL and PCNA immunohistochemistry in H460 tumors; assay type: in vivo, mice; settings: three daily IV injections, 5 mg/kg
Protocol: In vivo tumor cell apoptosis was determined by TdT-mediated dUTP Nick-End Labeling (TUNEL) assay. […] Twenty-four hours after the final injection, mice were sacrificed and tumors are fixed in 4% paraformaldehyde solution for 12 h before being embedded in paraffin and sectioned at a thickness of 5 μm. The TUNEL staining was performed as recommended by the manufacturer (Promega). DAPI mounting medium (Vector Laboratories, Inc., Burlingame, Calif.) was dropped on the sections for nucleus staining. Images of TUNEL-stained tumor sections were captured with a fluorescence microscope (Nikon Corp., Tokyo, Japan). The percentage of apoptotic cells was obtained by dividing the number of apoptotic cells(TUNEL positive cells shown as green dots) from the number of total cells(blue nuclei stained by DAPI, not shown) in each microscopic field, and 10 representative microscopic fields were randomly selected in each treatment group for this analysis. Proliferation of tumor cells after the aforementioned treatments and dosing schedule was detected by immunohistochemistry, using an antibody against proliferating cell nuclear antigen (PCNA) (1:200 dilution, Santa Cruz). The immunohistochemistry was performed using a mouse-specific HRP/DAB detection IHC kit as recommended by the manufacturer (Abcam, Cambridge, Mass.). […]

[7] = tested on: A375M cells; experiment: Cell toxicity assay (MTS); assay type: cell-based, human; settings: 48 h, read-out: IC50, growth inhibition
Protocol: (§1) A375M cells were seeded in 96-well plates at a density of 2000 cells/well and incubated in 10% FBS of DMEM containing 100 U/mL penicillin and […] streptomycin for 20 h. The medium was removed and replaced by Opti-MEM containing CDDP or LPC NPs. Forty-eight hours later, a CellTiter 96 AQueous One Solution Cell Proliferation Assay (Promega, Madison, Wis.) kit containing the tetrazolium compound MTS was used to assay cell viability according to the manufacturer's protocols. The IC50 values were calculated using Graphpad Prism 5 (Graphpad Software Inc.)

[8] = tested on: 1205Lu cells; experiment: Cell toxicity assay (MTS); assay type: cell-based, human; settings: 48 h
Protocol: as §1, with “1205Lu” for “A375M”, “penicillin,” for “penicillin”, “Then, the” for “The”, “protocols.” for “protocols. The IC50 values were calculated using Graphpad Prism 5 (Graphpad Software Inc.)”

[9] = Biodistribution of Pt in A375M tumor-bearing mice; assay type: in vivo; settings: twenty-four hours post-IV injection, 1.0 mg/kg Pt
Protocol: […] Tissue samples were digested by concentrated nitric acid overnight at room temperature and processed according to the procedure reported previously the literature.119, 120 The concentration of Pt was measured using ICP-MS.

[10] = tested on: A375M melanoma xenograft tumors; experiment: In vivo anticancer efficacy, A375M xenograft; parameters: species or system nude mice; settings: weekly IV, 1.0 mg/kg Pt
Protocol: All procedures involving experimental mice are performed in accordance with the protocols conformed to the Guide for the Care and Use of Laboratory Animals (NIH publication No. 86-23, revised 1985). Female athymic nude mice, 5-6 weeks old and weighing 18-22 g were obtained. 5×10^6 A375M cells were injected subcutaneously into the mice. After 10 days, the mice were randomly divided into four groups (4-6 mice per group). The mice were treated with weekly IV injections of CDDP and LPC NPs and saline as a control. A dose of 1.0 mg/kg Pt was administered. Thereafter, tumor growth and body weight were monitored. Tumor volume was calculated using the following formula: TV=(L×W^2)/2, with W being smaller than L. Finally, mice were sacrificed using a CO2 inhalation method.
After the therapeutic experiment was complete, blood samples were collected and allowed to clot for 2 h at room temperature. […] For liver and renal function experiments, the levels of aspartate aminotransferase, alanine aminotransferase, and blood urea nitrogen in the serum were measured. […]
The tumors were fixed in 4.0% paraformaldehyde (PFA), paraffin-embedded, and sectioned. […] TUNEL-positive nuclei were monitored by using a fluorescence microscope (Nikon, Tokyo, Japan). […] TUNEL-positive cells in three slides of images taken at 40× magnification were counted to quantify apoptosis.

[11] = tested on: 1205Lu xenograft tumors; experiment: In vivo anticancer efficacy, 1205Lu xenograft; parameters: species or system nude mice; settings: 2.0 mg/kg Pt
Protocol: Female athymic nude mice, 5-6 weeks old and weighing 18-22 g were obtained. 1205Lu xenograft tumors were developed through subcutaneous injection of approximately 5 million 1205Lu cells in female nude mice. […] Tumor growth and body weight were monitored. Tumor volume was calculated using the following formula: TV=(L×W^2)/2, with W being smaller than L. Finally, mice were sacrificed by CO2 inhalation. Tumors were collected after treatment and were formalin fixed and processed for TUNEL assay.
The tumors were fixed in 4.0% paraformaldehyde (PFA) and subsequently paraffin-embedded and sectioned. To detect apoptotic cells in tumor tissues, a TUNEL assay, using a DeadEnd™ Fluorometric TUNEL System (Promega, Madison, Wis.), was performed, following the manufacturer's protocol. Cell nuclei, which were stained with green fluorescence, are defined as TUNEL-positive nuclei. TUNEL-positive nuclei were monitored using a fluorescence microscope (Nikon, Tokyo, Japan). The cell nuclei were stained with 4, 6-diaminidino-2-phenyl-indole (DAPI) (Vectashield, Vector Laboratories, Inc., Burlingame, Calif.). To quantify TUNEL-positive cells, green-fluorescence-positive cells are counted in three images taken at 40× magnification.

[12] = tested on: A375M cells; experiment: In vitro neighboring effect study (co-culture, Annexin V); assay type: cell-based, human; settings: 48 h co-culture 1:10, A375M-GFP pretreated 50 μM Pt 4 h
Protocol: A375M-GFP cells (2×10^5) were seeded in 6-well plates (Corning Inc., Corning, N.Y.) 20 h before the beginning of the experiments. […] The A375M-GFP cells were mixed with A375M cells at the ratio of 1:10 (total cell number: 2×10^5) and reseeded into 6-well plates. After culturing for 48 h, the cells were stained with Hoechst 33342 (Sigma, St Louis, Mo.) and Annexin V Alexa Fluor® 568 Conjugate (Invitrogen, Carlsbad, Calif.). […] Results were processed using the Cellquest software (Becton-Dickinson).

[13] = Kidney and liver function parameters; assay type: in vivo, mice
Description: To evaluate the kidney toxicity, organs were taken for histopathological observation using H&E staining. […] We also did a pathologic examination by H&E staining of other major organs (liver, lung, spleen and heart) from mice that received long-term treatments (not shown). […] Finally, we tested the blood parameters. Levels of secreted liver enzymes (AST and ALT), and blood urea nitrogen were all unchanged after a four-dose treatment with LPC or LPI, indicating a lack of damage to the liver and the kidneys (Table 2).
After the therapeutic experiment was complete, blood samples were collected and allowed to clot for 2 h at room temperature. Serum was obtained through centrifugation for 20 min at 2,000 g. For liver and renal function experiments, the levels of aspartate aminotransferase, alanine aminotransferase, and blood urea nitrogen in the serum were measured. Major organs were collected after treatment and were formalin fixed and processed for routine H&E staining using standard methods. Images were collected using a Nikon light microscope (Nikon). After the A375M tumor reached 600 mm^3, the mice were treated with two weekly IV injections of LPC NPs at a dose of 3.0 mg/kg Pt. Seven days post the last injection, the mice were sacrificed and the tumors are assayed with TUNEL.

[14] = H&E histopathology of organs; assay type: in vivo, mice; settings: long-term treatments

Row | Compound | cell viability / toxicity (MTT) [1] | caspases 3 and 7 activity relative to untreated control [2] | increase in the 89 kDa PARP-1 cleavage product [3] | cells at G2/M phase [4] | tumor growth [5] | PCNA positive cells in tumor sections [6] | IC50 [7] | IC50 [8] | accumulation in the tumors [9] | tumor growth [10] | apoptosis in tumor (TUNEL) [11] | tumor growth ([11]; weekly IV) | apoptotic cells in the untreated cell population [12] | AST and ALT functional parameters ([13]; A375M study, FIG. 33) | ALT ([13]; four-dose treatment, mean ± SD) | AST ([13]; four-dose treatment, mean ± SD) | BUN ([13]; four-dose treatment, mean ± SD) | damage of other major organs (H&E) [14]
1 | COc1cc([C@@H]2c3cc4c(cc3[C@@H](O[C@@H]3O[C@@H]5CO[C@@H](C)O[C@H]5[C@H](O)[C@H]3O)[C@H]3COC(=O)[C@H]23)OCO4)cc(OC)c1OP(=O)(O)O [EP, Etoposide phosphate] | dose-dependent toxicity | 4 fold | readily detectable | About 50% | minimal impact on tumor growth | 75-80% | – | – | – | – | – | – | – | – | – | – | – | –
2 | N.N.[Cl][Pt][Cl] [CDDP, cis-diaminedichloroplatinum(II)] | – | – | – | – | – | – | 10.2 µM | 12.4 µM | 1.2 % of the injected dose per gram | ineffective; also recorded: not effective at all | 6.3% | partial effect | less than 6% | fall within the normal range | 54.3 ± 9.7 U/L | 105.7 ± 27.1 U/L | 25.7 ± 0.6 mg/dL | no toxicities in heart and lung
3 | [Cl-].[Cl-].[Cl-].[In+3] [Indium chloride] | no effect on viability | no effect | no effect | no discernable effect | – | – | – | – | – | – | – | – | – | – | – | – | – | –
